Laboratory results taken from the supplement of paper PMC10307832.

Legend:
Assay in all cases: relative viability (nuclei count vs DMSO), 5 days (fraction); higher = more cells survive
[1] = system: RERF-LC-KJ
Method in brief: (§1)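 Lung cancer cell lines, seeded in 1536-well plates, were treated the following day by pin tool with a single drug or with five library-drug doses (not always all listed) in √10 steps on top of a fixed anchor-drug dose. Cells were fixed and nuclei stained in one step after 5 days, and nuclei were counted. Relative viability is the nuclei count for treated wells divided by that for vehicle wells, reported as medians of duplicate plates.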

[2] = system: NCI-H727
Method in brief: as §1

[3] = system: NCI-H441
Method in brief: as §1

[4] = system: NCI-H2347
Method in brief: as §1

[5] = system: NCI-H1792
Method in brief: as §1

[6] = system: NCI-H1651
Method in brief: as §1

[7] = system: NCI-H1755
Method in brief: as §1

[8] = system: NCI-H650
Method in brief: as §1

[9] = system: NCI-H322M
Method in brief: as §1

[10] = system: PC-14
Method in brief: as §1

[11] = system: SW 900
Method in brief: as §1

[12] = system: NCI-H3122
Method in brief: as §1

[13] = system: NCI-H596
Method in brief: as §1

[14] = system: LXF-289
Method in brief: as §1

[15] = system: NCI-H1355
Method in brief: as §1

[16] = system: NCI-H2170
Method in brief: as §1

[17] = system: NCI-H1915
Method in brief: as §1

[18] = system: NCI-H460
Method in brief: as §1

[19] = system: LCLC-103H
Method in brief: as §1

[20] = system: NCI-H522
Method in brief: as §1

SMILES: Clc1ccc(Nc2nnc(Cc3ccncc3)c3ccccc23)cc1 [Vatalanib] + NC(=O)Nc1cc(-c2cccc(F)c2)sc1C(=O)N[C@H]1CCCNC1 [AZD7762] (partner 0.2 µM)
- relative viability ([1]; first compound 0.04 µM): 1.16
- relative viability ([1]; first compound 0.1265 µM): 0.919
- relative viability ([1]; first compound 0.4 µM): 1.05
- relative viability ([1]; first compound 1.265 µM): 0.711
- relative viability ([1]; first compound 4 µM): 0.749
- relative viability ([2]; first compound 0.1265 µM): 0.49
- relative viability ([2]; first compound 0.4 µM): 0.774
- relative viability ([2]; first compound 1.265 µM): 0.654
- relative viability ([2]; first compound 4 µM): 0.538
- relative viability ([3]; first compound 0.04 µM): 1.05
- relative viability ([3]; first compound 0.1265 µM): 1.18
- relative viability ([3]; first compound 0.4 µM): 1.19
- relative viability ([3]; first compound 1.265 µM): 1.02
- relative viability ([3]; first compound 4 µM): 0.892
- relative viability ([4]; first compound 0.04 µM): 0.776
- relative viability ([4]; first compound 0.1265 µM): 0.932
- relative viability ([4]; first compound 0.4 µM): 0.901
- relative viability ([4]; first compound 1.265 µM): 0.521
- relative viability ([4]; first compound 4 µM): 0.769
- relative viability ([5]; first compound 0.04 µM): 0.723
- relative viability ([5]; first compound 0.1265 µM): 0.663
- relative viability ([5]; first compound 0.4 µM): 0.728
- relative viability ([5]; first compound 1.265 µM): 0.503
- relative viability ([5]; first compound 4 µM): 0.581
- relative viability ([6]; first compound 0.04 µM): 0.441
- relative viability ([6]; first compound 0.1265 µM): 0.471
- relative viability ([6]; first compound 0.4 µM): 0.46
- relative viability ([6]; first compound 1.265 µM): 0.359
- relative viability ([6]; first compound 4 µM): 0.4
- relative viability ([7]; first compound 0.04 µM): 0.451
- relative viability ([7]; first compound 0.1265 µM): 0.406
- relative viability ([7]; first compound 0.4 µM): 0.489
- relative viability ([7]; first compound 1.265 µM): 0.418
- relative viability ([7]; first compound 4 µM): 0.419
- relative viability ([8]; first compound 0.04 µM): 1.03
- relative viability ([8]; first compound 0.1265 µM): 0.916
- relative viability ([8]; first compound 0.4 µM): 0.937
- relative viability ([8]; first compound 1.265 µM): 0.883
- relative viability ([8]; first compound 4 µM): 0.907
- relative viability ([9]; first compound 0.04 µM): 0.543
- relative viability ([9]; first compound 0.1265 µM): 0.527
- relative viability ([9]; first compound 0.4 µM): 0.503
- relative viability ([9]; first compound 4 µM): 0.47
- relative viability ([10]; first compound 0.04 µM): 0.31
- relative viability ([10]; first compound 0.1265 µM): 0.332
- relative viability ([10]; first compound 1.265 µM): 0.26
- relative viability ([10]; first compound 4 µM): 0.318
- relative viability ([11]; first compound 0.04 µM): 0.596
- relative viability ([11]; first compound 0.1265 µM): 0.653
- relative viability ([11]; first compound 0.4 µM): 0.567
- relative viability ([11]; first compound 1.265 µM): 0.69
- relative viability ([11]; first compound 4 µM): 0.6
- relative viability ([12]; first compound 0.04 µM): 1.07
- relative viability ([12]; first compound 0.1265 µM): 0.969
- relative viability ([12]; first compound 0.4 µM): 1.02
- relative viability ([12]; first compound 1.265 µM): 0.966
- relative viability ([12]; first compound 4 µM): 0.995
- relative viability ([13]; first compound 0.04 µM): 1.11
- relative viability ([13]; first compound 0.1265 µM): 1.25
- relative viability ([13]; first compound 0.4 µM): 1.18
- relative viability ([13]; first compound 1.265 µM): 1.1
- relative viability ([13]; first compound 4 µM): 0.907
- relative viability ([14]; first compound 0.04 µM): 1.14
- relative viability ([14]; first compound 0.1265 µM): 0.97
- relative viability ([14]; first compound 0.4 µM): 1.21
- relative viability ([14]; first compound 1.265 µM): 1.01
- relative viability ([14]; first compound 4 µM): 1.03
- relative viability ([15]; first compound 0.04 µM): 0.792
- relative viability ([15]; first compound 0.1265 µM): 0.745
- relative viability ([15]; first compound 0.4 µM): 0.767
- relative viability ([15]; first compound 1.265 µM): 0.578
- relative viability ([15]; first compound 4 µM): 0.597
- relative viability ([16]; first compound 0.04 µM): 0.988
- relative viability ([16]; first compound 0.1265 µM): 0.77
- relative viability ([16]; first compound 0.4 µM): 0.892
- relative viability ([16]; first compound 1.265 µM): 0.837
- relative viability ([16]; first compound 4 µM): 0.785
- relative viability ([17]; first compound 0.04 µM): 0.717
- relative viability ([17]; first compound 0.1265 µM): 0.665
- relative viability ([17]; first compound 0.4 µM): 0.716
- relative viability ([17]; first compound 1.265 µM): 0.653
- relative viability ([17]; first compound 4 µM): 0.661
- relative viability ([18]; first compound 0.04 µM): 0.589
- relative viability ([18]; first compound 0.1265 µM): 0.646
- relative viability ([18]; first compound 1.265 µM): 0.477
- relative viability ([18]; first compound 4 µM): 0.596
- relative viability ([19]; first compound 0.04 µM): 0.797
- relative viability ([19]; first compound 0.1265 µM): 0.714
- relative viability ([19]; first compound 0.4 µM): 0.803
- relative viability ([19]; first compound 1.265 µM): 0.806
- relative viability ([19]; first compound 4 µM): 0.725
- relative viability ([20]; first compound 0.04 µM): 0.848
- relative viability ([20]; first compound 0.1265 µM): 0.794
- relative viability ([20]; first compound 0.4 µM): 0.777
- relative viability ([20]; first compound 1.265 µM): 0.74
- relative viability ([20]; first compound 4 µM): 0.808
